Experimental data reported in ChEMBL document CHEMBL1150410, “Identification of MMP-12 inhibitors by using biosensor-based screening of a fragment library” (J Med Chem, 2008).
pIC50: −log10 of the molar value.

Experiments:
[1] = molecular target: T1, Macrophage metalloelastase (Homo sapiens, UniProt P39900); assay: Inhibition of MMP12
Target sequence in this assay (P39900 whole entry): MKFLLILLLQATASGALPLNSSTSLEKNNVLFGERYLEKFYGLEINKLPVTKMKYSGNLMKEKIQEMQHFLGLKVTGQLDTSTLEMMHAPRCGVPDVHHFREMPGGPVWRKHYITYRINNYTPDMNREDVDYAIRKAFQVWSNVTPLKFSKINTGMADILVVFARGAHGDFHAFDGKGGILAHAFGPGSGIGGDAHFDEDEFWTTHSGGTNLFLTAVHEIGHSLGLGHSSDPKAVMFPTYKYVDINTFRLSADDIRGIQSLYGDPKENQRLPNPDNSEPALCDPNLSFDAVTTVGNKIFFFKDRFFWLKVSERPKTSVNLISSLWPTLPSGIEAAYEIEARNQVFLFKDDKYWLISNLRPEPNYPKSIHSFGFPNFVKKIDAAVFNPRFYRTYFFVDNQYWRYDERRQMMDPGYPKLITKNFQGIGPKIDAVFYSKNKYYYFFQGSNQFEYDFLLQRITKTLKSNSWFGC

[2] = molecular target: T1, Macrophage metalloelastase; assay: Inhibition of MMP12 at 500 uM
Target sequence in this assay (P39900 106-470 limits assumed): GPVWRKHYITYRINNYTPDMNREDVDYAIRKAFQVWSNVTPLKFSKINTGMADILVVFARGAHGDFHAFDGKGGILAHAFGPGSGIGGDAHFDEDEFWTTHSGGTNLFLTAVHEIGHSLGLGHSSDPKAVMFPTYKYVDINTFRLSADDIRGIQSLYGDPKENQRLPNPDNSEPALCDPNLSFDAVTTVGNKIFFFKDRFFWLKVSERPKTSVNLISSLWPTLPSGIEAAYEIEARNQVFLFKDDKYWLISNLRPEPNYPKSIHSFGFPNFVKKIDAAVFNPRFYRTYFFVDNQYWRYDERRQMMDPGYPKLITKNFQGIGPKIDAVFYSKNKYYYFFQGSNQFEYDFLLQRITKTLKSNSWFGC

[3] = molecular target: T1, Macrophage metalloelastase; conditions: 0.0025 uM
Target sequence in this assay (P39900 106-470 limits assumed): as above
Description: Inhibition of MMP12 at 0.0025 uM

Structure (SMILES)	pIC50 [1]	inhibition [2]	inhibition [3]
Cc1ccc2c(c1)NC(=O)CO2	3.45	60%	
CNC(=O)[C@H](Cc1c[nH]c2ccccc12)NC(=O)[C@@H](CC(=O)NO)CC(C)C [ILOMASTAT]	9.00		75%
Cn1cc2c(n1)-c1cc(Cl)ccc1SC2	3.00	30%	
Cc1nc(-c2ccc3c(c2)CCC(=O)N3)cs1	2.30	10%	
O=C1NC(=O)C(c2ccccc2)N1 (configuration not stated)	6.54	100%	
COc1ccc2nc[nH]c2c1	2.70	25%	
